Results from article PMC8070745, “FEN1 Blockade for Platinum Chemo-Sensitization and Synthetic Lethality in Epithelial Ovarian Cancers” (Cancers, 2021).

Key:
[1] = target: T1, Recombinant human FEN1 protein (Homo sapiens, UniProt P39748); test: radio-labeled FEN1 cleavage assay; type: biochemical; settings: 3 nM FEN1, 37 °C, 10 min
T1 construct: made in house

[2] = test system: XRCC1 deficient A2780cis cells; test: FEN1 inhibitor cytotoxicity, XRCC1 deficient A2780cis; type: cell-based, human; settings: vs A2780cis control
ATM-deficient HeLa cells = test: FEN1 inhibitor cytotoxicity, ATM-deficient HeLa; type: cell-based; settings: vs HeLa control
PEO1 cells = test: Annexin V apoptosis detection, PEO1; type: cell-based, human; settings: FEN1i monotherapy
Experimental: Apoptosis detection: Annexin V detection kit (556547, BD Biosciences) was used to quantify apoptotic cells. Briefly, cells were trypsinized, washed with PBS and the cellular pellet was re-suspended in Anexin Binding Buffer (1×). Following, FITC Anexin V and Propidium Iodide were added to the cells. After incubation, Anexin binding Buffer (1×) was added to each tube. All the samples were analysed on a Beckman-Coulter FC500 flow cytometer. The percentage of apoptotic cells was determined (late apoptotic = FITC-Annexin V positive, PI positive early apoptotic = FITC-Annexin V positive, PI negative; live cells = FITC-Annexin V negative, PI negative) and compared for untreated and treated samples. Graphical representation and statistical analysis was performed in GraphPad Prism 7 (GraphPad, La Jolla, USA).
3D Spheroid assays: A2780_control and A2780 FEN1_ KO as well as A2780cis_control and A2780cis FEN1_ KO cells were seeded at 4500 cells/cm2 density in ultra-low attachment 6-well plates (174932, Thermo Fisher Scientific) and cultured in 3D Tumorsphere Medium (C28070, PromoCell, UK) at 37°C in a 5% CO2 atmosphere. Cells were keep in culture for 7-10 days, toping up with fresh medium every two days until spheroids structures were formed.

FEN1 = test system: FEN1; set-up: method as in PMID 21062821; settings: read-out: IC50 for FEN1 inhibition; cited from earlier work
[3] = test system: FEN1 nuclear level in A2780 cells; test: Nuclear extract western blot for FEN1, A2780; type: cell-based, human; settings: 5 µM cisplatin, 24 h
Experimental: Clonogenic assay: In the clonogenic assay (colony formation assays), 32 cells/cm2 were seeded in 6-well plates and left at 37°C in a 5% CO2 atmosphere. Cisplatin (5µM) and/or FEN1i (10µM) and/or Importazole (5 µM, Selleckem, S8446 ) were added at the indicated concentrations and the plates were left at 37 °C in a 5% CO 2 atmosphere for 14 days. Later, the plates were washed with PBS, fixed and stained with a crystal violet, acetic acid and methanol solution and colonies were counted.
Nuclear and cytoplasmic extract: Cells were harvest by trypsinization, washed with PBS and centrifuged at 1000×g for 5min. […] Protein level were then quantified prior to use in western blots.
BCA protein quantification: Protein quantification was done using the Pierce BCA kit assay by Thermo Fisher Scientific. […] The plate was incubated at 37°C during 30 min in the dark and the absorbance was measured by FLUOstar OPTIMA, UK/ Infinite® F50 (UK) microplate reader at 590 nm. […]
Western Blot Analysis: Cells were harvested and lysed in RIPA buffer (R0278, Sigma) with the addition of protease cocktail inhibitor (P8348, Sigma), phosphatase inhibitor cocktail 2 (P5726, Sigma) and phosphatase inhibitor cocktail 3 (P0044, Sigma) and stored at - 20°C. Protein was quantified using BCA Protein Assay kit (23225, Thermo Fisher). […]

T1 sequence (P39748 whole entry): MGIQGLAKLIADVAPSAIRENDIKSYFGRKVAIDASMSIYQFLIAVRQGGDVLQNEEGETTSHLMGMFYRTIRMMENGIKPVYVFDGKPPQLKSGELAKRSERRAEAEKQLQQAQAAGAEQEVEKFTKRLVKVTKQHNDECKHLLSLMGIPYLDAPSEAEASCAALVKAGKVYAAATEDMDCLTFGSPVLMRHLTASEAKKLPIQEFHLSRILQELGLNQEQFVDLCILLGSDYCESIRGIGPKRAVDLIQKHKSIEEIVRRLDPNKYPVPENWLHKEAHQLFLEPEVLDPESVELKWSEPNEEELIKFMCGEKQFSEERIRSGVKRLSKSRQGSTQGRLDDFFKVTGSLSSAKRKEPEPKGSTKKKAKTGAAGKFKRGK

Row | SMILES | FEN1 inhibition in cleavage assay [1] | sensitivity to FEN1 inhibitor [2] | sensitivity to FEN1 inhibitor (ATM-deficient HeLa cells) | apoptosis (PEO1 cells) | IC50 (FEN1) [nM] | nuclear level of FEN1 after cisplatin [3]
1 | Cc1csc2c1c(=O)n(O)c(=O)n2-c1ccccc1 [PTPD, 3-hydroxy-5-methyl-1-phenylthieno [2,3 d]pyrimidine-2,4(1H,3H)-dione] | confirmed FEN1 inhibition | did not observe any increased sensitivity | did not observe increased sensitivity | induction of apoptosis | 22 | –
2 | N.N.[Cl][Pt][Cl] [cisplatin] | – | – | – | – | – | significantly decreased
